From patent US10487093B2, “Heterocyclic compounds, in particular 2-oxo-4,4,5,5,6,6,7,7-octahydrobenzoxazole derivatives, and their use as antibacterial compounds” (priority 2016, dated 2019) come the findings set out here.

For assay [1], the system named is Acinetobacter baumannii NCTC 13420. In words: MIC, broth microdilution (CLSI) versus planktonic bacteria. Particulars: NCTC13420; Acinetobacter baumannii NCTC 13420; 16-20 h; mode of three independent experiments; read-out: MIC, Ab NCTC 13420. In kind it is cell-based. Background: Broth dilution looks for growth in wells or tubes with falling amounts of substance.

Assay [2] deals with Acinetobacter baumannii ATCC 19606. The assay is described as above. In kind it is cell-based. Particulars: ATCC19606; Acinetobacter baumannii ATCC 19606; 16-20 h; mode of three independent experiments; read-out: MIC, Ab ATCC 19606.
The subject of assay [3] is Enterobacter cloacae NCTC 13406. Described as above. In kind it is cell-based. Particulars: NCTC13406; Enterobacter cloacae NCTC 13406; 16-20 h; mode of three independent experiments; read-out: MIC, Ecl NCTC 13406.
For assay [4], the system named is Escherichia coli ATCC 25922. The assay is described as above. In kind it is cell-based. The note with it: ATCC25922; Escherichia coli ATCC 25922; 16-20 h; mode of three independent experiments; read-out: MIC, Ec ATCC 25922.
The test system of assay [5] is E. coli ATCC BAA-2452. The assay is described as above. The format is cell-based. Particulars: Escherichia coli ATCC BAA-2452; 16-20 h; mode of three independent experiments; read-out: MIC, Ec ATCC BAA 2452.
In assay [6] the test system is E. coli NCTC 13476. Described as above. In kind it is cell-based. The note with it: NCTC13476; Escherichia coli NCTC 13476; 16-20 h; mode of three independent experiments; read-out: MIC, Ec NCTC 13476.
Assay [7] has as its system E. coli MG1655. The description is as above. In kind it is cell-based, Escherichia coli. Particulars: Escherichia coli, MG1655, read-out: MIC, Ec MG1655 WT.
Assay [8] concerns Haemophilus influenzae ATCC 49247. The description is as above. The format is cell-based. The note with it: ATCC49247; Haemophilus influenzae ATCC 49247; 16-20 h; mode of three independent experiments; read-out: MIC, Hi ATCC 49247.
Assay [9] has as its system Pseudomonas aeruginosa ATCC 27853. The assay is described as above. The format is cell-based. Particulars: ATCC27853; Pseudomonas aeruginosa ATCC 27853; 16-20 h; mode of three independent experiments; read-out: MIC, Pa ATCC 27853.
Assay [10] deals with Staphylococcus aureus ATCC 29213. Described as above. In kind it is cell-based. The note with it: ATCC29213; Staphylococcus aureus ATCC 29213; 16-20 h; mode of three independent experiments; read-out: MIC, Sa ATCC 29213.
The subject of assay [11] is Streptococcus pneumoniae ATCC 49619. The description is as above. The format is cell-based. The note with it: ATCC49619; Streptococcus pneumoniae ATCC 49619; 16-20 h; mode of three independent experiments; read-out: MIC, Sp ATCC 49619.
Assay [12] concerns E. coli MG1655 S83L. In kind it is cell-based, Escherichia coli. The note with it: compared to the isogenic parent strain E. coli MG1655; S83L mutation on DNA gyrase subunit GyrA.
In assay [13] the test system is E. coli MG1655 D87G. In kind it is cell-based, Escherichia coli. The note with it: compared to the isogenic parent strain E. coli MG1655; D87G mutation on DNA gyrase subunit GyrA.
Assay [14] deals with human hepatic cell line (HepG2 ATCC HB-8065). In words: Human cell viability assay (CellTiter-Glo). The note with it: Homo sapiens, HepG2, 24 h, read-out: IC50 (μg/mL) HepG2. (In general: ATP-based viability assays read luminescence as a measure of living cells.)

Structures are written as SMILES. ≈ marks a conversion by molar mass, not a printed value.

For the compound `O=C1COc2ccc(N3C(=O)O[C@@H]4C[C@@H](NCCn5c(=O)cnc6cc(F)c(F)cc65)CC[C@@H]43)nc2N1` [Compound 22, 1-(2-{[(3aS,6S,7aR)-2-oxo-3-{3-oxo-2H,3H,4H-pyrido[3,2-b][1,4]oxazin-6-yl}-octahydro-1,3-benzoxazol-6-yl]amino}ethyl)-6,7-difluoro-1,2-dihydroquinoxalin-2-one], the MIC in assay [1], in [2], in assay [3], in assay [4], in [5] and in assay [6] was below 1 µg/mL each time. In addition, the MIC in assay [7] is below 1 µg/mL; in assay [8], below 1 µg/mL; in assay [9] it was 1 to 10 µg/mL (≈ 1.95 to 19.5 µM); in [10], below 1 µg/mL; in [11], below 1 µg/mL. Moreover, the “Fold increase in MIC, E. coli MG1655 S83L” value in [12] is listed as 2 fold. Besides, the “Fold increase in MIC, E. coli MG1655 D87G” value in assay [13] turned out to be 2 fold.
`N#Cc1cnc2ccc(=O)n(CCN[C@H]3CC[C@H]4[C@H](C3)OC(=O)N4c3ccc4c(n3)NC(=O)CO4)c2c1` [Compound 55, 5-(2-{[(3aS,6S,7aS)-2-oxo-3-{3-oxo-2H,3H,4H-pyrido[3,2-b][1,4]oxazin-6-yl}-octahydro-1,3-benzoxazol-6-yl]amino}ethyl)-6-oxo-5,6-dihydro-1,5-naphthyridine-3-carbonitrile]: the MIC in assay [1], in assay [2], in assay [3], in assay [4], in assay [5] and in assay [6] was below 1 µg/mL in each case. Further, the MIC in [7], in [8], in [10] and in assay [11] was below 1 µg/mL throughout. The “Fold increase in MIC, E. coli MG1655 S83L” value in assay [12] is 1 fold. The “Fold increase in MIC, E. coli MG1655 D87G” value in assay [13] is listed as 1 fold. For the same compound, the IC50 in assay [14] was above 100 µg/mL.
Consider `N#Cc1ccc2ccc(=O)n(CCN[C@H]3CC[C@H]4[C@H](C3)OC(=O)N4c3ccc4c(n3)NC(=O)CO4)c2c1` [Compound 56, 1-(2-{[(3aS,6S,7aS)-2-oxo-3-{3-oxo-2H,3H,4H-pyrido[3,2-b][1,4]oxazin-6-yl}-octahydro-1,3-benzoxazol-6-yl]amino}ethyl)-2-oxo-1,2-dihydroquinoline-7-carbonitrile], for which the MIC in assay [1], in assay [2], in assay [3], in assay [4], in assay [5] and in assay [6] was below 1 µg/mL each time. Also, the MIC in [7], in assay [8], in [10] and in assay [11] was below 1 µg/mL throughout. The “Fold increase in MIC, E. coli MG1655 S83L” value in assay [12] turned out to be 1 fold. The “Fold increase in MIC, E. coli MG1655 D87G” value in [13] was 2 fold. In assay [14], the IC50 lay in the range of 10 to 100 µg/mL (≈ 20 to 200 µM).
With `N#Cc1cccc(-c2cccc(CN[C@H]3CC[C@H]4[C@H](C3)OC(=O)N4c3ccc4c(n3)NC(=O)CO4)c2)n1` [Compound 57, 6-[3-({[(3aS,6S,7aS)-2-oxo-3-{3-oxo-2H,3H,4H-pyrido[3,2-b][1,4]oxazin-6-yl}-octahydro-1,3-benzoxazol-6-yl]amino}methyl)phenyl]pyridine-2-carbonitrile], the MIC in assay [1] is below 1 µg/mL; in assay [2], below 1 µg/mL; in assay [3], 1 to 10 µg/mL (≈ 2.01 to 20.1 µM); in assay [4] it was below 1 µg/mL; in assay [5] it was 1 to 10 µg/mL (≈ 2.01 to 20.1 µM); in assay [6] it was 1 to 10 µg/mL (≈ 2.01 to 20.1 µM). In addition, the MIC in [7], in assay [8], in assay [10] and in assay [11] was below 1 µg/mL throughout. Also, the “Fold increase in MIC, E. coli MG1655 S83L” value in assay [12] stood at 1 fold. Also, the “Fold increase in MIC, E. coli MG1655 D87G” value in assay [13] amounted to 1 fold.
For `COc1cc2c(ccc(=O)n2CCN[C@H]2CC[C@H]3[C@H](C2)OC(=O)N3c2ccc3c(n2)NC(=O)CO3)cn1` [Compound 62, 1-(2-{[(3aS,6S,7aS)-2-oxo-3-{3-oxo-2H,3H,4H-pyrido[3,2-b][1,4]oxazin-6-yl}-octahydro-1,3-benzoxazol-6-yl]amino}ethyl)-7-methoxy-1,2-dihydro-1,6-naphthyridin-2-one], the MIC was below 1 µg/mL in assay [1]; 1 to 10 µg/mL (≈ 1.97 to 19.7 µM) in [2]; below 1 µg/mL in [4]; 1 to 10 µg/mL (≈ 1.97 to 19.7 µM) in assay [5]; 1 to 10 µg/mL (≈ 1.97 to 19.7 µM) in assay [6]; 1 to 10 µg/mL (≈ 1.97 to 19.7 µM) in assay [7]. The MIC was 1 to 10 µg/mL (≈ 1.97 to 19.7 µM) in assay [8], 10 to 100 µg/mL (≈ 19.7 to 197 µM) in assay [9], below 1 µg/mL in assay [10] and below 1 µg/mL in assay [11]. For the same compound, in assay [12], the “Fold increase in MIC, E. coli MG1655 S83L” value was 1 fold. In [13], the “Fold increase in MIC, E. coli MG1655 D87G” value was 0.5 fold.
`O=C1COc2ccc(N3C(=O)O[C@H]4C[C@@H](NCCn5c(=O)ccc6ncc(OC(F)F)cc65)CC[C@@H]43)nc2N1` [Compound 98, 1-(2-{[(3aS,6S,7aS)-2-oxo-3-{3-oxo-2H,3H,4H-pyrido[3,2-b][1,4]oxazin-6-yl}-octahydro-1,3-benzoxazol-6-yl]amino}ethyl)-7-(difluoromethoxy)-1,2-dihydro-1,5-naphthyridin-2-one]: the MIC in [1] was below 1 µg/mL; in assay [2], below 1 µg/mL; in assay [3], 1 to 10 µg/mL (≈ 1.84 to 18.4 µM); in assay [4] it was below 1 µg/mL; in assay [5], below 1 µg/mL; in [6], 1 to 10 µg/mL (≈ 1.84 to 18.4 µM). In addition, the MIC was below 1 µg/mL in assay [7], below 1 µg/mL in assay [8], 1 to 10 µg/mL (≈ 1.84 to 18.4 µM) in [9] and below 1 µg/mL in assay [10]. The “Fold increase in MIC, E. coli MG1655 S83L” value in assay [12] is given as 1 fold. Further, the “Fold increase in MIC, E. coli MG1655 D87G” value in assay [13] stood at 1 fold. Moreover, the IC50 in assay [14] is above 100 µg/mL.
Consider `O=C1COc2ccc(N3C(=O)O[C@H]4C[C@@H](NCCn5c(=O)ccc6ccc(OC(F)F)cc65)CC[C@@H]43)nc2N1` [Compound 101, 1-(2-{[(3aS,6S,7aS)-2-oxo-3-{3-oxo-2H,3H,4H-pyrido[3,2-b][1,4]oxazin-6-yl}-octahydro-1,3-benzoxazol-6-yl]amino}ethyl)-7-(difluoromethoxy)-1,2-dihydro quinolin-2-one], for which the MIC was below 1 µg/mL in [1]; below 1 µg/mL in assay [2]; 1 to 10 µg/mL (≈ 1.85 to 18.5 µM) in [3]; below 1 µg/mL in [4]; below 1 µg/mL in assay [5]; below 1 µg/mL in [6]. Further, the MIC in assay [7] is below 1 µg/mL; in [9], 1 to 10 µg/mL (≈ 1.85 to 18.5 µM); in assay [10], below 1 µg/mL; in [11], below 1 µg/mL. Also, in assay [12], the “Fold increase in MIC, E. coli MG1655 S83L” value is reported as 1 fold. Also, in assay [13], the “Fold increase in MIC, E. coli MG1655 D87G” value stood at 1 fold. The IC50 in [14] was in the range of 10 to 100 µg/mL (≈ 18.5 to 185 µM).
`N#Cc1cccc(-c2cccc(CN[C@H]3CC[C@H]4[C@H](C3)OC(=O)N4c3ccc4c(n3)NC(=O)CO4)n2)c1` [Compound 105, 3-[6-({[(3aS,6S,7aS)-2-oxo-3-{3-oxo-2H,3H,4H-pyrido[3,2-b][1,4]oxazin-6-yl}-octahydro-1,3-benzoxazol-6-yl]amino}methyl)pyridin-2-yl]benzonitrile]: the MIC in [1] is below 1 µg/mL; in assay [2], below 1 µg/mL; in assay [3], 1 to 10 µg/mL (≈ 2.01 to 20.1 µM); in assay [4], below 1 µg/mL; in assay [5], below 1 µg/mL; in [6], 1 to 10 µg/mL (≈ 2.01 to 20.1 µM). Moreover, the MIC in assay [7] was below 1 µg/mL; in assay [8], below 1 µg/mL; in assay [9], 1 to 10 µg/mL (≈ 2.01 to 20.1 µM); in assay [10], below 1 µg/mL. Besides, the “Fold increase in MIC, E. coli MG1655 S83L” value in [12] is on record as 1 fold. Moreover, the “Fold increase in MIC, E. coli MG1655 D87G” value in assay [13] is 1 fold. In assay [14], the IC50 lay in the range of 10 to 100 µg/mL (≈ 20.1 to 201 µM).
